Data on two molecules can be found in paper PMC7501296, “Rapid and direct control of target protein levels with VHL-recruiting dTAG molecules” (Nature Communications, 2020).

A short description of series [1]: Pharmacokinetic evaluation in mice. The format is in vivo, C57BL/6J male mice. From the text: For IP injections, dTAG-13 and dTAG^V-1 were formulated by dissolving into DMSO and then diluting with 20% solutol (Sigma): 0.9% sterile saline (Moltox) (w:v) with the final formulation containing 5% DMSO. […] Formulations were stable at room temperature for 7 days. For IV injections, dTAG-13 and dTAG^V-1 were formulated by dissolving into DMSO and then diluting with 5% solutol (Sigma): 0.9% sterile saline (Moltox) (w:v) with the final formulation containing 5% DMSO. All procedures for PK studies were compliant with ethical regulations for animal testing and research, and were approved by and performed in accordance with standards of the Institute Animal Care and Use Committee (IACUC) at Scripps Florida. Housing conditions for mice at Scripps Florida were as follows: lights on = 7 AM, lights off = 7 PM, average ambient temperature = 72 °F, and average humidity = 45%. PK was assessed in 8-week-old C57BL/6J male mice (Jackson Laboratory, #000664) with blood collected at 0.08, 0.25, 0.5, 1, 2, 4, 6, and 8 h (2 mg kg^−1 dTAG-13 intravenous (IV) tail vein, 10 mg kg^−1 dTAG-13 intraperitoneal (IP), and 2 mg kg^−1 dTAG^V-1 IV tail vein administrations) and 0.25, 0.5, 1, 2, 4, 6, 8, 24 and 48 h (2 mg kg^−1 dTAG^V-1 IP and 10 mg kg^−1 dTAG^V-1 IP administrations). Plasma was generated by centrifugation and plasma concentrations were determined by LC-MS/MS following the mass transition 49600à340 AMU. PK parameters were calculated using Phoenix WinNonlin to determine peak plasma concentration (Cmax), oral bioavailability (%F), exposure (AUC), half-life (t1/2), clearance (CL), and volume of distribution (Vd).

For series [2], the system named is EWS502 FKBP12^F36V-EWS/FLI; EWS/FLI^−/− cells. As to the kind of experiment: Relative growth of EWS502 FKBP12F36V-EWS/FLI; EWS/FLI-/- cells (CellTiter-Glo). The settings on record: for Relative growth (luminescence values relative to day 0): EWS502 FKBP12F36V-EWS/FLI, EWS/FLI-/-; for Antiproliferation (relative growth): replicate values. Type of series: cell-based. How it is done:
Cell viability was assayed in 2D-adherent or ultra-low adherent 3D-spheroids using CellTiter-Glo (Promega)[6],[15]. Luminescence was measured on an Envision 2104 plate reader (PerkinElmer) and Fluostar Omega Reader (BMG Labtech) and data was analyzed using GraphPad PRISM v8. Synergy assessments were performed using CellTiter-Glo (Promega) with the following modifications to the protocol described in the ref. [34]. In brief, EWS502 cells were plated at 1000 cells per well in 50 µL of appropriate media in 384-well white culture plates (Corning) allowed to adhere overnight, and 100 nL of compounds were added using a Janus Workstation pin tool (PerkinElmer) for 72 h. Cell viability was measured by addition of 10 µL of CellTiter-glo (Promega), followed by incubation for 15 minutes at room temperature. Luminescence was measured on an Envision 2104 plate reader (PerkinElmer) and data was analyzed using GraphPad PRISM v8.

Where [3] appears, read: intraperitoneal administration at 10 mg kg^−1.

Values joined by “and” are separate entries in the source; they are usually repeats but may differ in a detail not shown here. Identical values can stand only once.

In series [1] (IP, 10 mg kg-1), `CC[C@H](C(=O)N1CCCC[C@H]1C(=O)O[C@H](CCc1ccc(OC)c(OC)c1)c1ccccc1OCC(=O)NCCCCCCOc1cccc2c1C(=O)N(C1CCC(=O)NC1=O)C2=O)c1cc(OC)c(OC)c(OC)c1` (stereo partly drawn) [dTAG-13] registered an AUCinf of 6140 ng·h/mL, an AUClast of 5619 ng·h/mL, a CL of 28 mL/min/kg and a Cmax of 1263 ng/mL. In series [1] (IP, 10 mg kg-1), the T1/2 was found to be 2.41 h and the Tmax worked out at 2.00 h. For the same molecule, in series [1] (IV, 2 mg kg-1), the AUCinf turned out to be 1253 ng·h/mL, the AUClast came out at 1242 ng·h/mL, the CL was 32.5 mL/min/kg and the Cmax was 2373 ng/mL. Moreover, in series [1] (IV, 2 mg kg-1), the T1/2 stood at 1.46 h, the Tmax was 0.08 h and the Vss is 1.8 L/kg. For the same molecule, in series [1] (setting [3]), the “exposure (AUCinf)” value is 6140 ng·h/mL and the “half-life (T1/2)” value turned out to be 2.41 h.

Regarding `CCC(C(=O)N1CCCCC1C(=O)OC(CCc1ccc(OC)c(OC)c1)c1ccccc1OCC(=O)NCCCCCCC(=O)NC(C(=O)N1CC(O)CC1C(=O)NC(C)c1ccc(-c2scnc2C)cc1)C(C)(C)C)c1cc(OC)c(OC)c(OC)c1` (stereo not drawn) [dTAG^V-1-NEG], the “Relative growth (luminescence values relative to day 0)” value in series [2] (day 0, technical replicates) was 0.9945 and 0.95 and 1.001 and 0.9766 and 1.051 and 1.053 and 1.003 and 0.9709; in series [2] (day 3, technical replicates) it was 5.114 and 5.468 and 5.612 and 5.24 and 5.293 and 5.6444 and 5.751 and 5.436; in series [2] (day 5, technical replicates) it was 9.983 and 9.4493 and 9.47 and 9.104 and 8.952 and 10.1487 and 8.526 and 9.042; in series [2] (day 7, technical replicates), 11.0059 and 11.6763 and 12.0315 and 12.3084 and 11.8629 and 11.627 and 12.7076 and 12.9032. Further, the “Antiproliferation (relative growth)” value was 0.9369 and 1.039 and 1.049 and 1.03 and 0.9405 and 1.006 and 0.9678 and 1.0315 in series [2] (Time 0 days); 6.723 and 6.994 and 7.2 and 7.295 and 6.686 and 6.901 and 6.814 and 7.587 in series [2] (Time 3 days); 15.6789 and 14.8903 and 15.2182 and 14.1831 and 15.4702 and 12.9669 and 13.0283 and 13.2307 in series [2] (Time 5 days); 17.0897 and 17.8515 and 16.9942 and 16.7495 and 17.7706 and 16.0177 and 15.7257 and 18.5474 in series [2] (Time 7 days). Besides, in series [2] (longer time-points), the “Antiproliferative effects upon EWS/FLI degradation” value is recorded as “absent”.
